What all share (format): in vivo
Test [1] relates to Galium (catchweed bedstraw, Galium aparine). Description: Test A postemergence. As to conditions: Galium, post-emergence, 240 h; for pest or weed control at 125 g/ha: 125 g ai/ha, postemergence, visual injury rating after approximately 10 d, read-out: Galium plant response rating (0 to 100 scale, 0 no effect, 100 complete control); for pest or weed control at 31 g/ha: Postemergence, 31 g ai/ha, visual injury after approx. 10 d, 0 to 100 scale, 0 no effect, 100 complete control, read-out: Plant response rating, Galium. A digest of the protocol:
(§1)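 Each rating is a visual injury score from 0 to 100 given about 10 d after treatment, judged against untreated controls kept alongside in the greenhouse. In loam soil–sand blend, seeds got a preemergence directed soil spray, while postemergence plants were 2 to 10 cm tall at spraying.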

Test [2] concerns pigweed (Amaranthus retroflexus). The experiment in a line: Test A postemergence. To be noted: Amaranthus retroflexus, post-emergence, 240 h; for pest or weed control at 125 g/ha: 125 g ai/ha, postemergence, visual injury rating after approximately 10 d, read-out: Pigweed plant response rating (0 to 100 scale, 0 no effect, 100 complete control); for pest or weed control at 31 g/ha: Postemergence, 31 g ai/ha, visual injury after approx. 10 d, 0 to 100 scale, 0 no effect, 100 complete control, read-out: Plant response rating, Pigweed. A digest of the protocol:
as §1

Test [3] deals with giant foxtail (Setaria faberii). The experiment in a line: Test A postemergence. To be noted: Setaria faberi, post-emergence, 240 h; for pest or weed control at 125 g/ha: 125 g ai/ha, postemergence, visual injury rating after approximately 10 d, read-out: Foxtail, Giant plant response rating (0 to 100 scale, 0 no effect, 100 complete control); for pest or weed control at 31 g/ha: Postemergence, 31 g ai/ha, visual injury after approx. 10 d, 0 to 100 scale, 0 no effect, 100 complete control, read-out: Plant response rating, Foxtail, Giant. A digest of the protocol: as §1

Test [4] deals with ryegrass, Italian (Italian ryegrass, Lolium multiflorum). The experiment in a line: Test A postemergence. As to conditions: Lolium multiflorum, post-emergence, 240 h; for pest or weed control at 125 g/ha: 125 g ai/ha, postemergence, visual injury rating after approximately 10 d, read-out: Ryegrass, Italian plant response rating (0 to 100 scale, 0 no effect, 100 complete control); for pest or weed control at 31 g/ha: Postemergence, 31 g ai/ha, visual injury after approx. 10 d, 0 to 100 scale, 0 no effect, 100 complete control, read-out: Plant response rating, Ryegrass, Italian. A digest of the protocol:
as §1

Test [5] deals with ragweed (common ragweed, Ambrosia elatior). The experiment in a line: Test A postemergence. To be noted: Ambrosia artemisiifolia, post-emergence, 240 h; for pest or weed control at 125 g/ha: 125 g ai/ha, postemergence, visual injury rating after approximately 10 d, read-out: Ragweed plant response rating (0 to 100 scale, 0 no effect, 100 complete control); for pest or weed control at 31 g/ha: Postemergence, 31 g ai/ha, visual injury after approx. 10 d, 0 to 100 scale, 0 no effect, 100 complete control, read-out: Plant response rating, Ragweed. A digest of the protocol:
as §1

The test system of test [6] is wheat (Triticum aestivum). Description: Test A postemergence. As to conditions: Triticum aestivum, post-emergence, 240 h; for plant injury at 125 g/ha: 125 g ai/ha, postemergence, visual injury rating after approximately 10 d, read-out: Wheat plant response rating (0 to 100 scale, 0 no effect, 100 complete control); for plant injury at 31 g/ha: Postemergence, 31 g ai/ha, visual injury after approx. 10 d, 0 to 100 scale, 0 no effect, 100 complete control, read-out: Plant response rating, Wheat. A digest of the protocol:
as §1

The subject of test [7] is blackgrass (Alopecurus myosuroides). The experiment in a line: Test A postemergence. As to conditions: Alopecurus myosuroides, post-emergence, 240 h; for pest or weed control at 125 g/ha: 125 g ai/ha, postemergence, visual injury rating after approximately 10 d, read-out: Blackgrass plant response rating (0 to 100 scale, 0 no effect, 100 complete control); for pest or weed control at 31 g/ha: Postemergence, 31 g ai/ha, visual injury after approx. 10 d, 0 to 100 scale, 0 no effect, 100 complete control, read-out: Plant response rating, Blackgrass. A digest of the protocol:
as §1

For another test, the system named is Kochia (Kochia scoparia). Description: Test A postemergence. To be noted: Bassia scoparia, post-emergence, 240 h; for pest or weed control at 125 g/ha: 125 g ai/ha, postemergence, visual injury rating after approximately 10 d, read-out: Kochia plant response rating (0 to 100 scale, 0 no effect, 100 complete control); for pest or weed control at 31 g/ha: Postemergence, 31 g ai/ha, visual injury after approx. 10 d, 0 to 100 scale, 0 no effect, 100 complete control, read-out: Plant response rating, Kochia. A digest of the protocol: as §1

The test system of test [8] is barnyardgrass (Echinochloa crus-galli). The experiment in a line: Test A postemergence. To be noted: Echinochloa crus-galli, post-emergence, 240 h; for pest or weed control at 125 g/ha: 125 g ai/ha, postemergence, visual injury rating after approximately 10 d, read-out: Barnyardgrass plant response rating (0 to 100 scale, 0 no effect, 100 complete control); for pest or weed control at 31 g/ha: Postemergence, 31 g ai/ha, visual injury after approx. 10 d, 0 to 100 scale, 0 no effect, 100 complete control, read-out: Plant response rating, Barnyardgrass. A digest of the protocol: as §1

The next test has as its system corn (Zea mays). Description: Test A postemergence. To be noted: Zea mays, post-emergence, 240 h; for plant injury at 125 g/ha: 125 g ai/ha, postemergence, visual injury rating after approximately 10 d, read-out: Corn plant response rating (0 to 100 scale, 0 no effect, 100 complete control); for Corn plant response rating (crop injury, 0 = no effect, 100 = complete kill) at 31 g/ha: Postemergence, 31 g ai/ha, visual injury after approx. 10 d, 0 to 100 scale, 100 complete control. A digest of the protocol: as §1

Test [9] has as its system sedge, umbrella (small-flower umbrella sedge, Cyperus difformis). Description: Test B flooded paddy test. To be noted: Cyperus difformis, Flood, 250 g ai/ha; scale of 0 to 100 where 0 is no effect and 100 is complete control; read-out: Sedge, Umbrella plant response rating. A digest of the protocol: (§2)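 Compound goes directly into floodwater once pots are flooded 3 cm above soil, targeting plants at two leaves; the water depth is then held for the test duration. Plants sit 13–15 d in a greenhouse and are rated visually, 100 denoting complete control.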

The test system of test [10] is ducksalad (Heteranthera limosa). Description: Test B flooded paddy test. As to conditions: Heteranthera limosa, Flood, 250 g ai/ha; scale of 0 to 100 where 0 is no effect and 100 is complete control; read-out: Ducksalad plant response rating. A digest of the protocol: as §2
The subject of the next test is rice (Oryra sativa). The experiment in a line: Test B flooded paddy test. As to conditions: Oryza sativa, Flood, 250 g ai/ha; scale of 0 to 100 where 0 is no effect and 100 is complete control; read-out: Rice plant response rating. A digest of the protocol: as §2
Test [11] deals with barnyardgrass (Echinochloa crus-galli). Description: Test B flooded paddy test. As to conditions: Echinochloa crus-galli, Flood, 250 g ai/ha; scale of 0 to 100 where 0 is no effect and 100 is complete control; read-out: Barnyardgrass plant response rating. A digest of the protocol: as §2

In the case of `CN1CC[C@H](c2ccc3c(c2)OC(F)(F)O3)[C@@H](C(=O)Nc2cccc(F)c2F)C1=O` [Compound 812], the pest or weed control at 125 g/ha in test [1] is 50%; in test [2] it was 0%; in test [3], 90%; in [4], 30%; in test [5] it was 0%; in test [7] it was 80%. The pest or weed control at 125 g/ha in the test with Kochia (Kochia scoparia) worked out at 20%; in [8], 90%. The pest or weed control at 31 g/ha in test [1] came to 20%; in [2], 0%; in [3] it was 70%; in [4], 0%; in [5] it was 0%; in [7] it was 40%. Also, the pest or weed control at 31 g/ha in the test with Kochia (Kochia scoparia) was determined as 0%; in test [8], 90%. For the same compound, the plant injury at 125 g/ha in [6] came out at 60%; with corn (Zea mays), 80%. Moreover, the plant injury at 31 g/ha in test [6] turned out to be 20%. This compound yielded a Corn plant response rating (crop injury, 0 = no effect, 100 = complete kill) at 31 g/ha in the test with corn (Zea mays) of 30%. For the same compound, the pest or weed control at 250 g/ha in test [9] is 0%; in test [10], 90%; in the test on rice (Oryra sativa), 0%; in test [11] it was 85%.
For `CN1CC[C@H](c2ccc3c(c2)OC(F)(F)O3)[C@@H](C(=O)Nc2ccc(F)c(F)c2F)C1=O` [Compound 813], the pest or weed control at 125 g/ha in [1] is 30%; in test [2] it was 0%; in [3], 80%; in [4], 20%; in [5] it was 0%; in test [7], 80%. The pest or weed control at 125 g/ha is 0% in the test with Kochia (Kochia scoparia) and 80% in test [8]. In addition, the pest or weed control at 31 g/ha amounted to 20% in test [1]; 0% in test [2]; 70% in test [3]; 0% in [4]; 0% in test [5]; 30% in [7]. Also, the pest or weed control at 31 g/ha in the test with Kochia (Kochia scoparia) is 0%; in test [8], 40%. In addition, the figures for the plant injury at 125 g/ha (in test [6]; in the test on corn (Zea mays)) were 30% and 40%, respectively. The plant injury at 31 g/ha in test [6] was determined as 0%. Further, the Corn plant response rating (crop injury, 0 = no effect, 100 = complete kill) at 31 g/ha in the test on corn (Zea mays) worked out at 30%. Further, the pest or weed control at 250 g/ha in [9] is 0%; in test [10], 100%; in the test on rice (Oryra sativa), 20%; in test [11] it was 70%.
Turning to `CN1C[C@H](c2cccc(C3CC3)c2)[C@@H](C(=O)Nc2ccccc2F)C1=O` [Compound 815], the pest or weed control at 125 g/ha in [1] came to 50%; in test [2] it was 20%; in [3], 90%; in [4] it was 60%; in test [5], 0%; in test [7], 50%. Besides, the pest or weed control at 125 g/ha with Kochia (Kochia scoparia) worked out at 40%; in test [8], 100%. The plant injury at 125 g/ha is 30% in [6] and 50% with corn (Zea mays). The pest or weed control at 250 g/ha in test [9] was found to be 0%; in test [10], 75%; in the test with rice (Oryra sativa) it was 20%; in test [11] it was 65%.

The record behind these values is US12077503B2, “Substituted cyclic amides and their use as herbicides” (FMC CORPORATION, priority 2015, dated 2024).
